“Also recorded” adds a separate entry of the source. Read-outs that look alike come from different tables or passages of the source.
Experiments:
[1] = in vitro; settings: human
[2] = test system: pseudotyped WT-EBOV; experiment: microbe, parasite or virus in culture; assay type: cell-based, Ebola virus
[3] = test system: pseudotyped WT-MARV; experiment: microbe, parasite or virus in culture; assay type: cell-based, Marburg virus; settings: for IC50: Human immunodeficiency virus 1, A549, read-out: IC50 (µM) (MARV)
[4] = biological target: EBOV GP; settings: cited from earlier work
[5] = test system: pseudotyped vesicular stomatitis virus (VSV); assay type: cell-based
[6] = test system: pseudotyped influenza H5N1; assay type: cell-based
[7] = test system: pseudotyped WT-EBOV; experiment: microbe, parasite or virus in culture; assay type: cell-based, Ebola virus; settings: Zaire ebolavirus, read-out: EBOV Inhibition (%)
[8] = test system: pseudotyped WT-MARV; experiment: organism not typed; assay type: cell-based, Marburg virus; settings: read-out: MARV Inhibition (%)
[9] = biological target: EBOV HR2 peptide ([…]) (Zaire ebolavirus, UniProt Q05320); assay type: binding, Ebola virus; settings: pH 5.2
[10] = test system: lysotracker red accumulation in lysosomes, A549 cells; experiment: cells; assay type: cell-based, Human; settings: for IC50: Homo sapiens, A549, read-out: IC50, inhibition of lysotracker red accumulation in lysosomes
[11] = test system: A549 cells
[12] = biological target: RAVN GPΔmucin (Lake Victoria marburgvirus, UniProt Q1PDC7); settings: 200 µM
[13] = test system: Ebola; settings: cited from earlier work
[14] = test system: lysosomes; settings: cited from earlier work
[15] = Zaire ebolavirus, A549, read-out: IC50 (µM) (EBOV)

Molecule: CN1[C@@H]2CC[C@H]1C[C@@H](OC(c1ccccc1)c1ccccc1)C2 [Benztropine]
- CC50 [1]: 52.9 ± 6.1 µM

Molecule: CC(C)COCC(CN(Cc1ccccc1)c1ccccc1)N1CCCC1 (stereo not drawn) [Bepridil]
- IC50 [2, 15]: 1.6 ± 0.8 µM
- IC50 [3]: 10 ± 2 µM
- Kd [4]: 290 µM
- CC50 [1]: 34.7 ± 4.6 µM

Molecule: CCCCOc1cc(C(=O)NCCN(CC)CC)c2ccccc2n1 [Dibucaine]
- IC50 [2, 15]: 3.2 ± 0.2 µM
- IC50 [3]: 6 ± 2 µM
- CC50 [1]: 67.1 ± 8 µM

Molecule: CNCCC(Oc1ccc(C(F)(F)F)cc1)c1ccccc1 (stereo not drawn) [Fluoxetine]
- inhibition of pseudotyped vesicular stomatitis virus (VSV) [5]: no inhibition
- inhibition of pseudotyped influenza H5N1 [6]: no inhibition
- inhibition at 0.625 µM [7]: 6.94%
- inhibition at 1.25 µM [7]: 21.4%
- inhibition at 2.5 µM [7]: 44.8%
- inhibition at 5 µM [7]: 55.7%
- inhibition at 10 µM [7]: 79.2%
- inhibition at 0.625 µM [8]: 35.7%
- inhibition at 1.25 µM [8]: 46.4%
- inhibition at 2.5 µM [8]: 62%
- inhibition at 5 µM [8]: 74.4%
- inhibition at 10 µM [8]: 88.8%
- binding to EBOV HR2 peptide (NOESY) [9]: intermolecular NOEs, highlighted by red arrows, are observed
- CC50 [1]: 28.7 ± 0.1 µM

Molecule: CN(C)CCCN1c2ccccc2CCc2ccccc21 [Imipramine]
- IC50 [2, 15]: 2.6 ± 0.1 µM
- IC50 [3]: 6.4 ± 0.6 µM
- Kd [4]: 584 µM
- CC50 [1]: 76.3 ± 7.4 µM

Molecule: CC(=O)N[C@@H](CC(C)C)C(=O)N[C@@H](CC(C)C)C(=O)N[C@H](C=O)CCCNC(=N)N [Leupeptin]
- IC50 [2, 15]: 0.35 ± 0.07 µM
- IC50 [3]: 0.6 ± 0.1 µM
- CC50 [1]: > 100 µM

Molecule: OCCOc1ccc(/C(=C(/CCCl)c2ccccc2)c2ccccc2)cc1 [Ospemifene]
- IC50 [2, 15]: 19 ± 10 µM
- loss of potency for MARV [3]: 35 fold
- IC50 [3]: 35 ± 3 µM
- lysosome trapping [10]: no trapping at any concentration; also recorded: no effect
- CC50 ([11]; human): 57 µM
- decrease in Tm of MARV (RAVN) GP [12]: 2 °C
- CC50 ([1]; CC50 (µM)): 56 µM

Molecule: Fc1ccc([C@@H]2CCNC[C@H]2COc2ccc3c(c2)OCO3)cc1 [Paroxetine]
- IC50 [2, 15]: 0.34 ± 0.05 µM
- IC50 [3]: 3.1 ± 0.1 µM
- Kd [4]: 650 µM
- CC50 [1]: 23.1 ± 6.3 µM

Molecule: CN[C@H]1CC[C@@H](c2ccc(Cl)c(Cl)c2)c2ccccc21 [Sertraline]
- CC50 [1]: 22.6 ± 6.2 µM

Molecule: CN(C)CCOc1ccc(/C(=C(/CCCl)c2ccccc2)c2ccccc2)cc1 [Toremifene]
- IC50 [2, 15]: 0.021 ± 0.009 µM
- IC50 ([2]; Zaire ebolavirus, A549, read-out: Toremifene IC50 (µM)): 0.01 µM
- Toremifene at 10 µM (% Infection) [3]: 3%
- IC50 [3]: 1.6 ± 0.6 µM
- IC50 [10]: 9.7 µM
- inhibition of pseudotyped vesicular stomatitis virus (VSV) [5]: no inhibition
- inhibition at 0.0312 µM [7]: 5.93%
- inhibition at 0.0625 µM [7]: 21.8%
- inhibition at 0.125 µM [7]: 41.2%
- inhibition at 0.25 µM [7]: 66.6%
- inhibition at 0.5 µM [7]: 88.5%
- inhibition at 0.625 µM [8]: -3.12%
- inhibition at 1.25 µM [8]: -0.5%
- inhibition at 2.5 µM [8]: 23.1%
- inhibition at 5 µM [8]: 71.2%
- inhibition at 10 µM [8]: 99%
- decrease in Tm of MARV (RAVN) GP [12]: ~ 5 °C
- CC50 [1]: 26.9 ± 2.4 µM

Molecule: CCN(CC)CCCC(C)Nc1ccnc2cc(Cl)ccc12 (stereo not drawn) [chloroquine]
- IC50 [10]: 3.3 µM

Molecule: CNCCCN1c2ccccc2CCc2ccccc21 [desipramine]
- Ebola entry inhibition in screen of FDA approved drugs [13]: not Ebola entry inhibitors
- accumulation in lysosomes [14]: accumulate in lysosomes

Molecule: CC(C)NCC(O)COc1cccc2ccccc12 (stereo not drawn) [propranolol]
- Ebola entry inhibition in screen of FDA approved drugs [13]: not Ebola entry inhibitors
- accumulation in lysosomes [14]: accumulate in lysosomes

Molecule: CA-074
- IC50 ([2]; read-out: IC50 (µM) (EBOV)): 32 ± 8 µM
- CC50 [11]: > 100 µM

— paper PMC7888603 (PLoS Pathogens, 2021)
